Source: patent publication US11109593B2, “Isoxazolin-5-one derivative and herbicide containing same as active ingredient” (HOKKO CHEMICAL INDUSTRY CO., LTD., priority 2017, dated 2021)

How the values were obtained:
Format in all cases: in vivo
[1] = system: Echinochloa crus-galli; experiment: Test Example 1: herbicidal effect test by treatment of rice paddy soil (immediately after seeding); details: 120 g/10a active ingredient, dry weight vs untreated area, 14 days after treatment
In short: (§1)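 Applied at 120 g a.i./10 ares as diluted emulsion dropped into flooded (~3 cm) paddy soil pots right after sowing seeds 0–1 cm deep; greenhouse, two replicates. At day 14, dry weight of treated versus untreated plants gives % herbicidal rate.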

[2] = system: Scirpus juncoides; experiment: as above; details: 120 g/10a active ingredient, dry weight vs untreated area, 14 days after treatment
In short: as §1

[3] = system: broad leaf weeds (Lindernia pyxidaria and Monochoria vaginalis); experiment: as above; details: 120 g/10a active ingredient, dry weight vs untreated area, 14 days after treatment
In short: as §1

[4] = system: Echinochloa crus-galli; experiment: Test Example 2: herbicidal effect test by treatment during growing period in paddy rice cultivation (seven days after seeding); details: 120 g/10a active ingredient, assessed 14 days after treatment, dry weight vs untreated area
In short: (§2)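 Herbicidal rate (%) = {1 − treated/untreated mean plant dry weight} × 100, assessed in duplicate 14 days post-treatment. Emulsion formulations were diluted in water and dropped onto flooded (about 3 cm) paddy pots 7 days after seeding, giving 120 g a.i. per 10 ares. Plants were grown in a glass greenhouse.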

[5] = system: Scirpus juncoides; experiment: as above; details: 120 g/10a active ingredient, assessed 14 days after treatment, dry weight vs untreated area
In short: as §2

[6] = system: broad leaf weeds (Lindernia pyxidaria and Monochoria vaginalis); experiment: as above; details: 120 g/10a active ingredient, assessed 14 days after treatment, dry weight vs untreated area
In short: as §2

[7] = system: Amaranthus viridis; experiment: Test Example 3: herbicidal effect test by treatment of dry field farming soil (one day after seeding); details: 120 g/10a active ingredient, evaluated 14 days after treatment
In short: (§3)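 Herbicidal rate (%) equals 1 minus treated/untreated mean plant dry weight, times 100, taken 14 days after treatment in duplicate pots. Emulsion diluted in water was applied at 100 L per 10 ares (120 g a.i. per 10 ares) one day after sowing 20 seeds per species into the top 1 cm of alluvial soil.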

[8] = system: Chenopodium album; experiment: as above; details: 120 g/10a active ingredient, evaluated 14 days after treatment
In short: as §3

[9] = system: Echinochloa crus-galli; experiment: as above; details: 120 g/10a active ingredient, evaluated 14 days after treatment
In short: as §3

[10] = system: southern crabgrass; experiment: as above; details: 120 g/10a active ingredient, evaluated 14 days after treatment
In short: as §3

[11] = system: Amaranthus viridis; experiment: Test Example 4: herbicidal effect test by treatment of leave and stem in dry field farming (seven days after seeding); details: 120 g/10a active ingredient; emulsion sprayed seven days after seeding; evaluated 14 days after treatment
In short: (§4)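 Twenty seeds per species were mixed into the top 1 cm of alluvial soil in 36 cm^2 pots; emulsions were sprayed seven days after seeding at 100 L per 10 ares (120 g active ingredient per 10 ares). Herbicidal rate (%) = {1 − treated/untreated mean dry weight} × 100, 14 days after treatment, duplicate.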

[12] = system: Chenopodium album; experiment: as above; details: 120 g/10a active ingredient; emulsion sprayed seven days after seeding; evaluated 14 days after treatment
In short: as §4

[13] = system: Echinochloa crus-galli; experiment: as above; details: 120 g/10a active ingredient; emulsion sprayed seven days after seeding; evaluated 14 days after treatment
In short: as §4

[14] = system: southern crabgrass; experiment: as above; details: 120 g/10a active ingredient; emulsion sprayed seven days after seeding; evaluated 14 days after treatment
In short: as §4

CCOC(=O)N(c1ccccc1Cc1c(C)n(C(C)CC)oc1=O)S(=O)(=O)C(F)(F)F (stereo not shown) [Compound 1-605]
Herbicidal rate (%) Echinochloa crus-galli [1]: 90% | Herbicidal rate (%) Scirpus juncoides [2]: 90% | Herbicidal rate (%) Lindernia pyxidaria [3]: 90% | Herbicidal rate (%) Monochoria vaginalis [3]: 90% | Herbicidal rate (%) Echinochloa crus-galli [4]: 90% | Herbicidal rate (%) Scirpus juncoides [5]: 90% | Herbicidal rate (%) Lindernia pyxidaria [6]: 90% | Herbicidal rate (%) Monochoria vaginalis [6]: 90% | herbicidal rate, Amaranthus viridis [7]: 90% | herbicidal rate, Chenopodium album [8]: 90% | herbicidal rate, Echinochloa crus-galli [9]: 90% | herbicidal rate, southern crabgrass [10]: 90% | herbicidal effect (herbicidal rate), Amaranthus viridis [11]: 40% | herbicidal effect (herbicidal rate), Chenopodium album [12]: 40% | herbicidal effect (herbicidal rate), Echinochloa crus-galli [13]: 90% | herbicidal effect (herbicidal rate), southern crabgrass [14]: 90%

CCCC(C)n1oc(=O)c(Cc2ccccc2N(C(=O)CC(C)C)S(=O)(=O)C(F)(F)F)c1C (stereo not shown) [Compound 1-356]
Herbicidal rate (%) Echinochloa crus-galli [1]: 100% | Herbicidal rate (%) Scirpus juncoides [2]: 90% | Herbicidal rate (%) Lindernia pyxidaria [3]: 90% | Herbicidal rate (%) Monochoria vaginalis [3]: 60% | Herbicidal rate (%) Echinochloa crus-galli [4]: 100% | Herbicidal rate (%) Scirpus juncoides [5]: 90% | Herbicidal rate (%) Lindernia pyxidaria [6]: 60% | Herbicidal rate (%) Monochoria vaginalis [6]: 70% | herbicidal rate, Amaranthus viridis [7]: 90% | herbicidal rate, Chenopodium album [8]: 60% | herbicidal rate, Echinochloa crus-galli [9]: 90% | herbicidal rate, southern crabgrass [10]: 90% | herbicidal effect (herbicidal rate), Amaranthus viridis [11]: 60% | herbicidal effect (herbicidal rate), Chenopodium album [12]: 60% | herbicidal effect (herbicidal rate), Echinochloa crus-galli [13]: 90% | herbicidal effect (herbicidal rate), southern crabgrass [14]: 80%

Cc1c(Cc2ccccc2N(C(=O)C2CCCCC2)S(=O)(=O)C(F)(F)F)c(=O)on1C(C)(C)C [Compound 1-431]
Herbicidal rate (%) Echinochloa crus-galli [1]: 90% | Herbicidal rate (%) Scirpus juncoides [2]: 90% | Herbicidal rate (%) Lindernia pyxidaria [3]: 90% | Herbicidal rate (%) Monochoria vaginalis [3]: 90% | Herbicidal rate (%) Echinochloa crus-galli [4]: 90% | Herbicidal rate (%) Scirpus juncoides [5]: 90% | Herbicidal rate (%) Lindernia pyxidaria [6]: 90% | Herbicidal rate (%) Monochoria vaginalis [6]: 90% | herbicidal rate, Amaranthus viridis [7]: 90% | herbicidal rate, Chenopodium album [8]: 90% | herbicidal rate, Echinochloa crus-galli [9]: 90% | herbicidal rate, southern crabgrass [10]: 90% | herbicidal effect (herbicidal rate), Amaranthus viridis [11]: 40% | herbicidal effect (herbicidal rate), Chenopodium album [12]: 40% | herbicidal effect (herbicidal rate), Echinochloa crus-galli [13]: 90% | herbicidal effect (herbicidal rate), southern crabgrass [14]: 90%

CSCCn1oc(=O)c(Cc2ccccc2N(C(C)=O)S(=O)(=O)C(F)(F)F)c1C [Compound 1-305]
Herbicidal rate (%) Echinochloa crus-galli [1]: 90% | Herbicidal rate (%) Scirpus juncoides [2]: 90% | Herbicidal rate (%) Lindernia pyxidaria [3]: 90% | Herbicidal rate (%) Monochoria vaginalis [3]: 90% | Herbicidal rate (%) Echinochloa crus-galli [4]: 90% | Herbicidal rate (%) Scirpus juncoides [5]: 90% | Herbicidal rate (%) Lindernia pyxidaria [6]: 90% | Herbicidal rate (%) Monochoria vaginalis [6]: 90% | herbicidal rate, Amaranthus viridis [7]: 90% | herbicidal rate, Chenopodium album [8]: 90% | herbicidal rate, Echinochloa crus-galli [9]: 90% | herbicidal rate, southern crabgrass [10]: 90% | herbicidal effect (herbicidal rate), Amaranthus viridis [11]: 40% | herbicidal effect (herbicidal rate), Chenopodium album [12]: 40% | herbicidal effect (herbicidal rate), Echinochloa crus-galli [13]: 90% | herbicidal effect (herbicidal rate), southern crabgrass [14]: 90%
